Key:
Caco-2 cell line = conditions: cited from earlier work
[1] = tested on: rat intestinal tract tissue; conditions: in vivo; cited from earlier work
in vivo [2] = conditions: male, SD, rat, sc, 10 ug/kg
in vivo [3] = conditions: male, rat
in vivo [4] = conditions: male, SD, rat
in vivo [5] = conditions: male, SD, rat; remark: listed apart in the source
in vivo [6] = conditions: male, SD, rat, iv, 10 ug/kg
in vivo [7] = conditions: male, SD, rat, iv, 10 ug/kg; remark: listed apart in the source
in vivo [8] = conditions: male, SD, rat; remark: listed apart in the source
[9] = rat, in vivo

Structure (SMILES): CCCCCCCCCC(=O)O [capric acid]
- cytotoxicity and tissue damage (Caco-2 cell line): exhibits cytotoxicity and causes tissue damage
- cytotoxicity and tissue damage [1]: exhibits cytotoxicity and causes tissue damage

Structure (SMILES): CC[C@H](C)[C@H](NC(=O)[C@H](CCC(=O)O)NC(=O)[C@H](CO)NC(=O)[C@@H](NC(=O)[C@@H](N)CO)C(C)C)C(=O)N[C@@H](CCC(N)=O)C(=O)N[C@@H](CC(C)C)C(=O)N[C@@H](CCSC)C(=O)N[C@@H](Cc1cnc[nH]1)C(=O)N[C@@H](CC(N)=O)C(=O)N[C@@H](CC(C)C)C(=O)NCC(=O)N[C@@H](CCCCN)C(=O)N[C@@H](Cc1cnc[nH]1)C(=O)N[C@@H](CC(C)C)C(=O)N[C@@H](CC(N)=O)C(=O)N[C@@H](CO)C(=O)N[C@@H](CCSC)C(=O)N[C@@H](CCC(=O)O)C(=O)N[C@@H](CCCN=C(N)N)C(=O)N[C@H](C(=O)N[C@@H](CCC(=O)O)C(=O)N[C@@H](Cc1c[nH]c2ccccc12)C(=O)N[C@@H](CC(C)C)C(=O)N[C@@H](CCCN=C(N)N)C(=O)N[C@@H](CCCCN)C(=O)N[C@@H](CCCCN)C(=O)N[C@@H](CC(C)C)C(=O)N[C@@H](CCC(N)=O)C(=O)N[C@@H](CC(=O)O)C(=O)N[C@H](C(=O)N[C@@H](Cc1cnc[nH]1)C(=O)N[C@@H](CC(N)=O)C(=O)N[C@@H](Cc1ccccc1)C(=O)O)C(C)C)C(C)C [hPTH(1-34)]
- AUC (in vivo [2]): 0.827 ng·h/mL
- Cmax (in vivo [2]): 1.07 ± 0.41 ng/mL
- bioavailability (in vivo [3]; Wistar, iv): 0.4 ± 0.4%
- AUC (in vivo [3]; Wister): 0.538 ng·h/mL
- Cmax (in vivo [3]; Wister): 0.93 ± 0.8 ng/mL
- bioavailability (in vivo [4]): 0.3 ± 0.1%
- AUC (in vivo [4]; inhaled or intranasal): 0.732 ng·h/mL
- Cmax (in vivo [4]; inhaled or intranasal): 0.67 ± 0.16 ng/mL
- AUC (in vivo [5]): 25.6 ng·h/mL
- Cmax (in vivo [5]): 27.8 ± 15.9 ng/mL
- bioavailability (in vivo [5]; iv): 14.6 ± 10.7%
- AUC (in vivo [6]): 3.48 ng·h/mL
- Cmax (in vivo [6]): 31 ± 1.3 ng/mL

Structure (SMILES): CCCCCCCC(=O)OC[C@H](NC(=O)[C@H](CO)NC(=O)CN)C(=O)N[C@@H](Cc1ccccc1)C(=O)N[C@@H](CC(C)C)C(=O)N[C@@H](CO)C(=O)N1CCC[C@H]1C(=O)N[C@@H](CCC(=O)O)C(=O)N[C@@H](Cc1cnc[nH]1)C(=O)N[C@@H](CCC(N)=O)C(=O)N[C@@H](CCCNC(=N)N)C(=O)N[C@H](C(=O)N[C@@H](CCC(N)=O)C(=O)N[C@@H](CCC(N)=O)C(=O)N[C@@H](CCCNC(=N)N)C(=O)N[C@@H](CCCCN)C(=O)N[C@@H](CCC(=O)O)C(=O)N[C@@H](CO)C(=O)N[C@@H](CCCCN)C(=O)N[C@@H](CCCCN)C(=O)N1CCC[C@H]1C(=O)N1CCC[C@H]1C(=O)N[C@@H](C)C(=O)N[C@@H](CCCCN)C(=O)N[C@@H](CC(C)C)C(=O)N[C@@H](CCC(N)=O)C(=O)N1CCC[C@H]1C(=O)N[C@@H](CCCNC(=N)N)C(=O)O)C(C)C [human ghrelin]
- AUC (in vivo [7]): 3.43 ng·h/mL
- C0 (in vivo [7]): 40.7 ng/mL
- AUC (in vivo [8]): 0.533 ng·h/mL
- Cmax (in vivo [8]): 2.25 ± 2 ng/mL
- bioavailability (in vivo [8]): 1.6 ± 1.4%

Structure (SMILES): CC[C@H](C)[C@H](NC(=O)[C@@H]1CCCN1C(=O)[C@@H](NC(=O)[C@@H](N)Cc1ccccc1)C(C)C)C(=O)N[C@@H](Cc1ccccc1)C(=O)N[C@H](C(=O)N[C@@H](Cc1ccc(O)cc1)C(=O)NCC(=O)N[C@@H](CCC(=O)O)C(=O)N[C@@H](CC(C)C)C(=O)N[C@@H](CCC(N)=O)C(=O)N[C@@H](CCCNC(=N)N)C(=O)N[C@@H](CCSC)C(=O)N[C@@H](CCC(N)=O)C(=O)N[C@@H](CCC(=O)O)C(=O)N[C@@H](CCCCN)C(=O)N[C@@H](CCC(=O)O)C(=O)N[C@@H](CCCNC(=N)N)C(=O)N[C@@H](CC(N)=O)C(=O)N[C@@H](CCCCN)C(=O)NCC(=O)N[C@@H](CCC(N)=O)C(=O)O)[C@@H](C)O [human motilin]
- BA of human motilin [9]: 1.1 ± 0.7%

— patent publication US20110165195A1 (priority 2007, published 2011)
